SMILES strings stand for the structures.

The test system of assay [1] is human promyelocytic leukemia cell line HL-60. Kind of assay: Cytostatic activity in vitro, HL-60 sensitive line. The assay is classed as cell-based. To be noted: 50% inhibition of cell growth after 72 h continuous exposure; read-out: HL60 IC50. From the text: (§1) Tables 3 and 4 show cytostatic activity in vitro of 2,6-disubstituted and 2- or 6-monosubstituted (Tab.3), and of 2,5-disubstituted-(Tab.-4) tetracyclic anthrapyridazone derivatives using leukemia cell line HL-60 and the resistant cell sublines with resistance induced by vincristine (MDR-1) or doxorubicin (MRP). Activity of compounds is differentiated depending on their structure, but in all cases resistance indexes are more advantageous in comparison with reference compounds: doxorubicin and mitoxantrone.

In assay [2] the test system is HL60/VINC. The assay is described as follows: Cytostatic activity in vitro, vincristine-induced resistant subline (MDR-1). The assay is classed as cell-based, human. To be noted: for IC50: 72 h continuous exposure; for RI resistance index HL60/VINC: IC50(resistant cells)/IC50(sensitive cells), HL60/VINC vs HL60, 72 h.
Excerpt: as §1

Assay [3] concerns CT-DNA. Kind of assay: Interaction with isolated CT-DNA, fluorescence competition with ethidium bromide. Type of assay: binding. Conditions: for IC50: 50% decrease in fluorescence intensity of DNA-bromide ethydine complex; for Kapp relative constant of DNA-compound bonding: Kapp = (1.26/C50) × KEtBr, KEtBr = 10^7M. The text has this:
It could be supposed that this property explains cytostatic activity of compounds. In Table 9 there are presented quantitative data on the affinity to DNA of tested compounds using the fluorescence method and competitive affinity to DNA of bromine ethydine and tested compounds.

In assay [4] the test system is human prostate cancer cell line LNCaP. The assay is described as follows: Cytostatic activity in vitro, prostate cancer LNCaP. The assay is classed as cell-based. To be noted: 72 h continuous exposure. From the text: (§2) Table 5 presents activity in vitro of anthrapiridazone derivatives towards three cell lines of prostate cancer, naturally multidrug resistant, in comparison with references doxorubicin, mitoxantrone and taxol.

Assay [5] has as its system human prostate cancer cell line PC3. Kind of assay: Cytostatic activity in vitro, prostate cancer PC3. Conditions: 72 h continuous exposure. Type of assay: cell-based.
Excerpt: as §2

Assay [6] has as its system HL60/DX. Kind of assay: Cytostatic activity in vitro, doxorubicin-induced resistant subline (MRP). The assay is classed as cell-based, human. Conditions: for IC50: 72 h continuous exposure; for RI resistance index HL60/DX: IC50(resistant cells)/IC50(sensitive cells), HL60/DX vs HL60, 72 h.
Excerpt: as §1

Assay [7] deals with human prostate cancer cell line DU145. Kind of assay: Cytostatic activity in vitro, prostate cancer DU145. The assay is classed as cell-based. Conditions: 72 h continuous exposure.
Excerpt: as §2

On to `CC(=O)Nc1ccc2c(=O)n(CCN(C)C)nc3c2c1C(=O)c1ccccc1-3` [PDZ-14, 2-[2-(Dimethylamino)ethyl]-6-(acetylamino)-2,7-dihydro-3H-dibenzo[de,h]cynnoline-3,7-dione], for which the IC50 was determined as 28 ± 6 nM in assay [1]; 79 ± 7 nM in assay [2]; 990 ± 10 nM in assay [3]; 44.8 ± 5.6 nM in assay [4]; 85.5 ± 10.1 nM in assay [5]; 870 ± 173 nM in assay [6]. Also, half-maximal inhibition in assay [7] (IC50) was put at 32.8 ± 1.4 nM. Besides, in assay [2], the “RI resistance index HL60/VINC” value came out at 2.8. Moreover, the Kapp relative constant of DNA-compound bonding in assay [3] was 1.27e+07 M⁻¹. Moreover, the “RI resistance index HL60/DX” value in assay [6] was found to be 31.1.

As to `CN(C)CCn1nc2c3c(c(NCc4ccccc4)ccc3c1=O)C(=O)c1ccccc1-2` [PDZ-8, 2-[2-(Dimethylamino)ethyl]-6-(N-benzylamino)-2,7-dihydro-3H-dibenzo[de,h]cynnoline-3,7-dione], the IC50 is 719 ± 27 nM in assay [1]; 850 ± 93 nM in assay [2]; 7290 ± 280 nM in assay [3]; 683 ± 17 nM in assay [4]; 1710 ± 125 nM in assay [5]; 4800 ± 1330 nM in assay [6]. The same compound yielded a 50% inhibitory concentration (IC50) in assay [7] of 1220 ± 142 nM. For the same compound, in assay [2], the “RI resistance index HL60/VINC” value was determined as 1.2. This compound had a Kapp relative constant of DNA-compound bonding in assay [3] of 1.7e+06 M⁻¹. In addition, the “RI resistance index HL60/DX” value in assay [6] came out at 6.7.

Take `CN(C)CCn1nc2c3ccccc3c3nn(CCN(C)C)c4ccc(c1=O)c2c34` [Compound C-163, Bis-2,6-[2-(dimethylamino)ethyl]-2,6-dihydro-5H-benzo[h]indazolo[5,4,3-def]cynnoline-5-one]: the IC50 in assay [1] was found to be 31 ± 6 nM; in assay [2], 48 ± 7 nM; in assay [3] it was 230 ± 10 nM; in assay [4], 28.2 ± 7.4 nM; in assay [5], 122 ± 27.6 nM; in assay [6], 330 ± 17 nM. For the same compound, inhibition in assay [7] was half-maximal at 21.8 ± 4.7 nM (IC50). Also, the “RI resistance index HL60/VINC” value in assay [2] is reported as 1.5. Further, in assay [3], the Kapp relative constant of DNA-compound bonding was found to be 5.57e+07 M⁻¹. Also, the “RI resistance index HL60/DX” value in assay [6] turned out to be 10.6.

For `CN(C)CCn1nc2c3c(cccc3c1=O)C(=O)c1ccccc1-2` [PDZ-15, 2-[2-(Dimethylamino)ethyl]-2,7-dihydro-3H-dibenzo[de,h]cynnoline-3,7-dione], the IC50 was found to be 213 ± 64 nM in assay [1]; 489 ± 68 nM in assay [2]; 3080 ± 190 nM in assay [3]; 323 ± 34 nM in assay [4]; 963 ± 171 nM in assay [5]; 3060 ± 992 nM in assay [6]. The same compound came in with an IC50 in assay [7] of 462 ± 52 nM. Besides, the “RI resistance index HL60/VINC” value in assay [2] came to 2.3. This compound displayed a Kapp relative constant of DNA-compound bonding in assay [3] of 4.1e+06 M⁻¹. For the same compound, the “RI resistance index HL60/DX” value in assay [6] was 14.4.

In the case of `CC(CNc1ccc2c(=O)n(CC(C)N(C)C)nc3c2c1C(=O)c1ccccc1-3)N(C)C` (stereo not drawn) [Compound C-123, 2-[2-(Dimethylamino)propyl]-6-{[2-(dimethylamino)propyl]amino}-2,7-dihydro-3H-dibenzo[de,h]cynnoline-3,7-dione], the IC50 in assay [1] stood at 8.7 ± 0.5 nM; in assay [2] it was 58 ± 6 nM; in assay [3], 310 ± 40 nM; in assay [4], 52.9 ± 12.1 nM; in assay [5], 127 ± 38.6 nM; in assay [6], 827 ± 145 nM. The compound further showed an IC50 in assay [7] of 25.6 ± 2.6 nM. Besides, the “RI resistance index HL60/VINC” value in assay [2] is given as 6.7. In addition, the Kapp relative constant of DNA-compound bonding in assay [3] was 4.04e+07 M⁻¹. In addition, the “RI resistance index HL60/DX” value in assay [6] is 95.1.

As to `CN(C)CCCNc1ccc2c(=O)[nH]nc3c2c1C(=O)c1ccccc1-3` [Compound C-131, 6-[(3-Dimethylamino)propyl]amino-3H-dibenzo[de,h]cynnoline-3,7-dione], the IC50 in assay [1] came out at 1150 ± 244 nM; in assay [2], 1010 ± 51 nM; in assay [3], 1630 ± 120 nM; in assay [4], 927 ± 92 nM; in assay [5], 2830 ± 234 nM; in assay [6], 4470 ± 428 nM. The same compound displayed an IC50 in assay [7] of 1480 ± 127 nM. Further, in assay [2], the “RI resistance index HL60/VINC” value is 0.9. This compound had a Kapp relative constant of DNA-compound bonding in assay [3] of 7.7e+06 M⁻¹. In assay [6], the “RI resistance index HL60/DX” value was determined as 3.9.

Broadly, the IC50 is the point on the concentration scale where inhibition reaches its midpoint.

The values are drawn from patent US9096536B2, “Asymmetrically substituted anthrapyridazone derivatives as cytostatics” (BS-154 S.P. ZO.O., priority 2011, dated 2015).
